Experimental data as given in publication PMC11492426, “Design, synthesis, and biological evaluation of novel quinoline-based EGFR/HER-2 dual-target inhibitors as potential anti-tumor agents” (RSC Advances, 2024).

Experiments:
[1] = system: Panc-1 pancreatic cancer cell line; experiment: Antiproliferative assay, Panc-1; type: cell-based; conditions: Homo sapiens; Panc-1 pancreatic cancer cells; read-out: Antiproliferative activity IC50 ± SEM, Panc-1
[2] = system: HT-29 colon cancer cell line; experiment: Antiproliferative assay, HT-29; type: cell-based; conditions: Homo sapiens; HT-29 colon cancer cells; read-out: Antiproliferative activity IC50 ± SEM, HT-29
[3] = system: four human cancer cell lines (A-549, MCF-7, Panc-1, HT-29); experiment: Antiproliferative assay, average over four cancer cell lines; type: cell-based; conditions: Homo sapiens, average IC50 over the four cancer cell lines
Caspase-8 = Caspase-8 activation assay in MCF-7 cells; type: cell-based, human; conditions: for Caspase-8 Conc.: treated at IC50 concentration; for Caspase-8 Fold change: versus untreated control
Bax = Bax activation assay in MCF-7 cells; type: cell-based, human; conditions: for Bax Conc.: treated at IC50 values; for Bax Fold change: versus untreated control
Protocol: This lysate was diluted in Standard Diluent Buffer over the range of the assay and measured for human active caspase-8 content. (Cells are Plated in a density of 1.2 – 1.8 × 10,000 cells/well in a volume of 100µl complete growth medium + 100 ul of the tested compound per well in a 96-well plate for 24 hours before the enzyme assay for […].). […]
4.2.7. Bax activation assay
Bring all reagents, except the human Bax-α Standard, to room temperature for at least 30 minutes prior to opening. The human Bax-α Standard solution should not be left at room temperature for more than 10 minutes. All standards, controls and samples should be run in duplicate. Refer to the Assay Layout Sheet to determine the number of wells to be used and put any remaining wells with the desiccant back into the pouch and seal the ziploc. Store unused wells at 4 °C. Pipet 100 μL of Assay Buffer into the S0 (0 pg/mL standard) wells. Pipet 100 μL of Standards #1 through #6 into the appropriate wells. Pipet 100 μL of the Samples into the appropriate wells. Tap the plate gently to mix the contents. Seal the plate and incubate at room temperature on a plate shaker for 1 hour at ~500 rpm. Empty the contents of the wells and wash by adding 400 μL of wash solution to every well.
Repeat the wash 4 more times for a total of 5 washes. After the final wash, empty or aspirate the wells and firmly tap the plate on a lint free paper towel to remove any remaining wash buffer. Pipet 100 μL of yellow Antibody into each well, except the Blank. Seal the plate and incubate at room temperature on a plate shaker for 1 hour at ~500 rpm. Empty the contents of the wells and wash by adding 400 μL of wash solution to every well. Repeat the wash 4 more times for a total of 5 washes.
After the final wash, empty or aspirate the wells and firmly tap the plate on a lint free paper towel to remove any remaining wash buffer. Add 100 μL of blue Conjugate to each well, except the Blank.
Seal the plate and incubate at room temperature on a plate shaker for 30 minutes at ~500 rpm. Empty the contents of the wells and wash by adding 400 μL of wash solution to every well. Repeat the wash 4 more times for a total of 5 washes. After the final wash, empty or aspirate the wells and firmly tap […]
the plate on a lint free paper towel to remove any remaining wash buffer. Pipet 100 μL of Substrate Solution into each well. Incubate for 30 minutes at room temperature on a plate shaker at ~500 rpm.
Pipet 100 μL Stop Solution to each well. Blank the plate reader against the Blank wells, read the optical density at 450 nm. Calculate the average net Optical Density (OD) bound for each standard and sample by subtracting the average Blank OD from the average OD for each standard and sample.
Using linear graph paper, plot the Average Net OD for each standard versus Bax concentration in each standard. Approximate a straight line through the points. The concentration of Bax in the unknowns can be determined by interpolation. […]
Remove plate cover and empty the wells. […]
Incubate the microwell strips at room temperature (18° to 25°C) for about 15 minutes, if

Bcl-2 = Bcl-2 inhibition assay in MCF-7 cells; type: cell-based, human; conditions: for Bcl-2 Conc.: treated at IC50 values
Protocol: Additionally, the treatment led to a notable reduction in anti-apoptotic Bcl-2 expression levels, with a fold decrease of roughly 6 for compound 3e and 8 for compound 5a. Compounds 3e and 5a markedly elevated the Bax/Bcl-2 ratio compared to the control untreated cells. […]
4.2.8. Bcl-2 inhibition assay
Mix all reagents thoroughly without foaming before use. Wash the microwells twice with approximately 300 μL Wash Buffer per well with thorough aspiration of microwell contents between washes. Take caution not to scratch the surface of the microwells. After the last wash, empty the wells and tap microwell strips on absorbent pad or paper towel to remove excess Wash Buffer. Use the microwell strips immediately after washing or place upside down on a wet absorbent paper for not […]
longer than 15 minutes. […] Add 100 μL of Sample Diluent in duplicate to all standard wells and to the blank wells. Prepare standard (1:2 dilution) in duplicate ranging from 32 ng/mL to 0.5 ng/mL. Add 100 μL of Sample Diluent, in duplicate, to the blank wells. Add 80 μL of Sample Diluent, in duplicate, to the sample wells. Add 20 μL of each Sample, in duplicate, to the designated wells. Add 50 μL of diluted biotin-conjugate to all wells, including the blank wells. Cover with a plate cover and incubate at room temperature, on a microplate shaker at 100 rpm if available, for 2 hours. Remove plate cover and empty the wells. Wash microwell strips 3 times as described in step 2. Add 100 μL of diluted Streptavidin-HRP to all wells, including the blank wells. Cover with a plate cover and incubate at room temperature, on a microplate shaker at 100 rpm if available, for 1 hour. Remove plate cover and empty the wells. Wash microwell strips 3 times as described in step 2.
Proceed to the next step. Pipette 100 μl of mixed TMB Substrate Solution to all wells, including the blanks. Incubate the microwell strips at room temperature (18° to 25°C) for about 15 minutes, if available on a rotator set at 100 rpm. Avoid direct exposure to intense light. The point, at which the substrate reaction is stopped, is often determined by the ELISA reader. Many ELISA readers record absorbance only up to 2.0 O.D. Therefore, the color development within individual microwells must be watched by the person running the assay and the substrate reaction stopped before positive wells are no longer properly detectable. Stop the enzyme reaction by quickly pipetting 100 μL of Stop Solution into each well, including the blank wells. It is important that the Stop Solution is spread quickly and uniformly throughout the microwells to completely inactivate the enzyme. Results must be read immediately after the Stop Solution is added or within one hour if the microwell strips are stored at 2 - 8°C in the dark. Read absorbance of each microwell on a spectrophotometer using 450 nm as the primary wavelength.
4.3. Statistical analysis
Computerized Prism 5 program was used to statistically analyzed data using one-way ANOVA test followed by Tukey’s as post ANOVA for multiple comparison at P ≤.05. Data were presented as […]

EGFR = EGFR (Homo sapiens, UniProt P00533); experiment: EGFR inhibitory assay (EGFR-TK assay)
HER2 = HER2 (Homo sapiens, UniProt P04626); experiment: HER2 inhibitory assay (ADP-Glo kinase assay)
Sequence of HER2 (P04626 676-1255 limits assumed): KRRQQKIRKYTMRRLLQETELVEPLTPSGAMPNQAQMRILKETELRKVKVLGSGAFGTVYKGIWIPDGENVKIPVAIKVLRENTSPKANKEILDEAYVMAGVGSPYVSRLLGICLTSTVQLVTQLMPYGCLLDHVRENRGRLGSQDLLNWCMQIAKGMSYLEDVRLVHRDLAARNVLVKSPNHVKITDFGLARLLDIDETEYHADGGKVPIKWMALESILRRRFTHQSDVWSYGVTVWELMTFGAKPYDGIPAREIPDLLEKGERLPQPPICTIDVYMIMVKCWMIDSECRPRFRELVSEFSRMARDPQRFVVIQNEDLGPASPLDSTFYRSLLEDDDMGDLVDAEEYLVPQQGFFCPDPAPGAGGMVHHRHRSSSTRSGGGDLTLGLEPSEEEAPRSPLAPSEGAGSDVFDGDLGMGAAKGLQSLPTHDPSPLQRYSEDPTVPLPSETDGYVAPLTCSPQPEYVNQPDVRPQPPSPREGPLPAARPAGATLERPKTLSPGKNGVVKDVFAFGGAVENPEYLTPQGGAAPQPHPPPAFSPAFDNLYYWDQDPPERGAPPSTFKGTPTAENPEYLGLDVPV

Sequence of EGFR (P00533 669-1210): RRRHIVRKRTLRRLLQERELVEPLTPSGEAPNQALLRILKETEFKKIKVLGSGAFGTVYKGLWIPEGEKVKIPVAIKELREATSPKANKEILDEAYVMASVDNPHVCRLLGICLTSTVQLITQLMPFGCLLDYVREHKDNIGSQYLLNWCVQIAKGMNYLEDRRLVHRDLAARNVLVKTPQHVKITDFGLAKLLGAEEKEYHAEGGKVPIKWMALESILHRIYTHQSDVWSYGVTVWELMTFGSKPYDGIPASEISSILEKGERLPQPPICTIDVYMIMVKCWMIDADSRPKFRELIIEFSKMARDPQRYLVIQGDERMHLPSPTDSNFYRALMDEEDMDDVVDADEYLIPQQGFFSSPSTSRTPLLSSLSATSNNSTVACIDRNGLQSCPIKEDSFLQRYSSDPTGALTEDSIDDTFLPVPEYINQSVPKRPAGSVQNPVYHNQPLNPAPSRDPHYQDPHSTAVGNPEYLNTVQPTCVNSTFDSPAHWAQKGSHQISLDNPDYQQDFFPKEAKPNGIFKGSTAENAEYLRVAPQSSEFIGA

Compound | IC50 [1] [nM] | IC50 [2] [nM] | GI50 [3] [nM] | Caspase-8 Conc. (Caspase-8) [ng/mL] | Caspase-8 Fold change (Caspase-8) | Bax Conc. (Bax) [pg/mL] | Bax Fold change (Bax) | Bcl-2 Conc. (Bcl-2) [ng/mL] | IC50 (EGFR) [nM] | IC50 (HER2) [nM] | Bcl-2 Fold reduction (Bcl-2; versus untreated control)
O=c1[nH]c2ccccc2c(O)c1/C=N/c1nc(-c2ccncc2)n[nH]1 [Compound 3e, (E)-4-hydroxy-3-(((3-(pyridin-4-yl)-1H-1,2,4-triazol-5-yl)imino)methyl)quinolin-2(1H)-one] | 34 ± 3 | 34 ± 3 | 33 | 1.65 ± 0.20 | 19 | 316 ± 3 | 35 | 0.84 | 79 ± 5 | 39 ± 2 | 
O=c1[nH]c2ccccc2c(O)c1C=Nc1ccc(NS(=O)(=O)c2ncccn2)cc1 [Compound 5a, N-(4-(((4-hydroxy-2-oxo-1,2-dihydroquinolin-3-yl)methylene)amino)phenyl) pyrimidine-2-sulfonamide] | 26 ± 2 | 26 ± 2 | 25 | 1.70 ± 0.15 | 21 | 350 ± 3 | 39 | 0.62 | 71 ± 4 | 31 ± 2 | ~8
